This assay addresses T1, human RIPK1 (1-375) (Homo sapiens, UniProt Q13546).
T1 construct: human RIPK1 (1-375) gene; GST; made in house; host or cells: Sf-9 insect cells
T1 sequence (Q13546 1-375): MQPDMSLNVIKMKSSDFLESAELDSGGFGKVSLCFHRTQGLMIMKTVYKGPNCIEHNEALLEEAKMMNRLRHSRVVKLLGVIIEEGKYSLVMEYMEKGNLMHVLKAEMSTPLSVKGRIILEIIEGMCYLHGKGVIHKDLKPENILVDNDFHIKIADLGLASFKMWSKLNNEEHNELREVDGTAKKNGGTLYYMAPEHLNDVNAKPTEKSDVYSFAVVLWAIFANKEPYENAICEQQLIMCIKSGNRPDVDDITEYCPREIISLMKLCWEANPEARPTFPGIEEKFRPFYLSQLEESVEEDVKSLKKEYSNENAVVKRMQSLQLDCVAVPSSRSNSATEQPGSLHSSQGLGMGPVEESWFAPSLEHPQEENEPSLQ
Put plainly: Human RIPK1 enzyme inhibitory effect (ADP-Glo Kinase Assay). The class given is biochemical. Particulars: for human RIPK1 enzyme inhibitory effect at 10 μM (% inhibition): 10 μM test compound. How it is done: Experimental Example 1: Human RIPK1 Enzyme Inhibitory Effect
Enzyme was prepared by transducing human RIPK1 (1-375) gene to Sf-9 insect cells, and purifying using GST affinity column, and enzyme activity evaluation was performed using the enzyme. The enzyme was used after preservation at −70° C. The RIPK1 enzyme inhibitory activity of the test compound was measured using ADP-Glo™ Kinase Assay (Promega) according the following experiment methods. The test compound diluted with assay buffer (25 mM HEPES (pH 7.5), 10 mM MgCl2, 0.01% Tween-20, 2 mM DTT) was added to 384 well plate by each 2 μL. Next, RIPK1 enzyme solution diluted with the assay buffer was added thereto by each 2 μL, and the mixture was incubated at room temperature for 20 min. After the incubation, 0.6 mM ATP solution was added thereto by each 2 μL to initiate an enzyme reaction. The mixture was incubated at room temperature for 120 min, and ADP-Glo solution prepared according to Promega protocol was added to the 384 well plate by each 3 μL, and the reaction was performed at room temperature for 40 min. Then, Kinase-Detection solution was added to the 384 well plate by each 6 μL, and the reaction was performed at room temperature for 40 min. After the reaction, the luminescence intensity was measured by plate reader Envision (PerkinElmer).
(ADP-Glo turns the ADP formed in a reaction into a luminescent signal.)

The mark [1] stands for this setting: read-out: human RIPK1 enzyme inhibitory effect at 10 μM (% inhibition), 10 μM test compound, well without enzyme = 100% inhibition.
Setting [2] is: well without enzyme = 100% inhibition.

Where two headings read alike, the source gives them in different places.

For orientation: inhibition means the change of the read-out against control, counted positive when it falls. For the compound `CN1C(=O)[C@@H](N2CCc3cn(Cc4ccc(Cl)cc4)nc3C2=O)COc2ccccc21` [Example 20, (3S)-3-(2-(4-chlorobenzyl)-7-oxo-2,4,5,7-tetrahydro-6H-pyrazolo[3,4-c]pyridin-6-yl)-5-methyl-2,3-dihydro-1,5-benzoxazepin-4(5H)-one], the inhibition at 10 µM under setting [1] worked out at 100%.

`CN1C(=O)C(N2CCc3c(nn(Cc4ccccc4F)c3Cl)C2=O)CCc2ccncc21` (stereo not drawn) [Example 104, 3-(3-chloro-2-(2-fluorobenzyl)-7-oxo-2,4,5,7-tetrahydro-6H-pyrazolo[3,4-c]pyridin-6-yl)-1-methyl-1,3,4,5-tetrahydro-2H-pyrido[3,4-b]azepin-2-one]: the “human RIPK1 enzyme inhibitory effect at 10 μM (% inhibition)” value under setting [2] is on record as 95%.

For `CN1C(=O)[C@@H](N2CCc3cn(CC4CCCC4)nc3C2=O)COc2ccccc21` [Example 37, (3S)-3-(2-(cyclopentylmethyl)-7-oxo-2,4,5,7-tetrahydro-6H-pyrazolo[3,4-c]pyridin-yl)-5-methyl-2,3-dihydro-1,5-benzoxazepin-4(5H)-one], the inhibition at 10 µM under setting [1] was 100%.

Take `CN1C(=O)[C@@H](N2CCc3cn(Cc4ccccn4)nc3C2=O)COc2ccccc21` [Example 32, (3S)-5-methyl-3-(7-oxo-2-(pyridin-2-ylmethyl)-2,4,5,7-tetrahydro-6H-pyrazolo[3,4-c]pyridin-6-yl)-2,3-dihydro-1,5-benzoxazepin-4(5H)-one]: under setting [1], the inhibition at 10 µM came out at 97%.

For the compound `CN1C(=O)C(N2CCc3c(nn(Cc4ccccc4)c3Cl)C2=O)CCc2ncccc21` (stereo not drawn) [Example 66, 7-(2-benzyl-3-chloro-7-oxo-2,4,5,7-tetrahydro-6H-pyrazolo[3,4-c]pyridin-6-yl)-5-methyl-5,7,8,9-tetrahydro-6H-pyrido[3,2-b]azepin-6-one (optical isomer)], the “human RIPK1 enzyme inhibitory effect at 10 μM (% inhibition)” value under setting [2] was determined as 100%.

With `CN1C(=O)[C@@H](N2CCc3c(nn(Cc4cnccn4)c3Cl)C2=O)COc2ccc(F)cc21` [Example 143, (3S)-3-(3-chloro-7-oxo-2-(pyrazin-2-ylmethyl)-2,4,5,7-tetrahydro-6H-pyrazolo[3,4-c]pyridin-6-yl)-7-fluoro-5-methyl-2,3-dihydro-1,5-benzoxazepin-4(5H)-one], the inhibition at 10 µM under setting [1] was found to be 100%.

With `CN1C(=O)[C@@H](N2CCc3cn(Cc4ccccc4)nc3C2=O)CS(=O)(=O)c2ccccc21` [Example 69, (3R)-3-(2-benzyl-7-oxo-2,4,5,7-tetrahydro-6H-pyrazolo[3,4-c]pyridin-6-yl)-5-methyl-2,3-dihydro-1,5-benzthiazepin-4(5H)-one 1,1-dioxide], under setting [1], the inhibition at 10 µM turned out to be 99%.

For the compound `CN1C(=O)[C@@H](N2CCc3cn(Cc4ccccc4)nc3C2=O)COc2cc(Br)ccc21` [Example 41, (3S)-3-(2-benzyl-7-oxo-2,4,5,7-tetrahydro-6H-pyrazolo[3,4-c]pyridin-6-yl)-8-bromo-5-methyl-2,3-dihydro-1,5-benzoxazepin-4(5H)-one], the inhibition at 10 µM under setting [1] amounted to 101%.

`CN1C(=O)[C@@H](N2CCc3cn(Cc4ccn(C)n4)nc3C2=O)COc2ccccc21` [Example 39, (3S)-5-methyl-3-(2-((1-methyl-1H-pyrazol-3-yl)methyl)-7-oxo-2,4,5,7-tetrahydro-6H-pyrazolo[3,4-c]pyridin-6-yl)-2-,3-dihydro-1,5-benzoxazepin-4(5H)-one]: the inhibition at 10 µM under setting [1] was 92%.

On to `CN1C(=O)[C@@H](N2CCc3cn(CC4(C)CCC4)nc3C2=O)COc2ccccc21` [Example 173, (3S)-5-methyl-3-(2-((1-methylcyclobutyl)methyl)-7-oxo-2,4,5,7-tetrahydro-6H-pyrazolo[3,4-c]pyridin-6-yl)-2,3-dihydro-1,5-benzoxazepin-4(5H)-one], for which the inhibition at 10 µM under setting [1] was 98%.

As for `CN1C(=O)[C@@H](N2CCc3c(nn(Cc4ccccc4)c3Cl)C2=O)COc2ccc(C#N)cc21` [Example 145, (3S)-3-(2-benzyl-3-chloro-7-oxo-2,4,5,7-tetrahydro-6H-pyrazolo[3,4-c]pyridin-6-yl)-5-methyl-4-oxo-2,3,4,5-tetrahydro-1,5-benzoxazepine-7-carbonitrile], the inhibition at 10 µM under setting [1] was found to be 101%.

Regarding `CN1C(=O)[C@@H](N2CCc3cn(CC4CC(F)(F)C4)nc3C2=O)COc2ccccc21` [Example 33, (3S)-3-(2-((3,3-difluorocyclobutyl)methyl)-7-oxo-2,4,5,7-tetrahydro-6H-pyrazolo[3,4-c]pyridin-6-yl)-5-methyl-2,3-dihydro-1,5-benzoxazepin-4(5H)-one], under setting [1], the inhibition at 10 µM is 95%.

`CN1C(=O)[C@@H](N2CCc3cn(Cc4ccccc4)nc3C2=O)COc2cc(F)ccc21` [Example 152, (3S)-3-(2-benzyl-7-oxo-2,4,5,7-tetrahydro-6H-pyrazolo[3,4-c]pyridin-6-yl)-8-fluoro-5-methyl-2,3-dihydro-1,5-benzoxazepin-4(5H)-one]: the inhibition at 10 µM under setting [1] worked out at 99%.

`Cc1c2c(nn1Cc1ccccc1)C(=O)N([C@H]1COc3cc(C#N)ccc3N(C)C1=O)CC2` [Example 86]: under setting [1], the inhibition at 10 µM worked out at 100%.

`CN1C(=O)[C@@H](N2CCc3c(nn(Cc4ccccc4)c3Cl)C2=O)COc2cc(-c3ncco3)ccc21` [Example 139, (3S)-3-(2-benzyl-3-chloro-7-oxo-2,4,5,7-tetrahydro-6H-pyrazolo[3,4-c]pyridin-6-yl)-5-methyl-8-(1,3-oxazol-2-yl)-2,3-dihydro-1,5-benzoxazepin-4(5H)-one]: the inhibition at 10 µM under setting [1] was 100%.

For the compound `CC(c1ccccc1)n1cc2c(n1)C(=O)N([C@H]1COc3ccccc3N(C)C1=O)CC2` (stereo partly drawn) [Example 21, (3S)-5-methyl-3-(7-oxo-2-(1-phenylethyl)-2,4,5,7-tetrahydro-6H-pyrazolo[3,4-c]pyridin-6-yl)-2,3-dihydro-1,5-benzoxazepin-4(5H)-one], the inhibition at 10 µM under setting [1] came out at 100%.

With `O=C1Nc2ccccc2CCC1N1CCn2nc(Cc3ccccc3)cc2C1=O` (stereo not drawn) [Example 18, 3-(2-benzyl-4-oxo-6,7-dihydropyrazolo[1,5-a]pyrazin-5(4H)-yl)-1,3,4,5-tetrahydro-2H-1-benzazepin-2-one], the inhibition at 10 µM under setting [1] came out at 72%.

With `CN1C(=O)C(N2CCc3c(nn(Cc4ccccc4)c3Cl)C2=O)CCc2c1cnn2C` (stereo not drawn) [Example 128, 6-(2-benzyl-3-chloro-7-oxo-2,4,5,7-tetrahydro-6H-pyrazolo[3,4-c]pyridin-6-yl)-1,4-dimethyl-4,6,7,8-tetrahydropyrazolo[4,3-b]azepin-5(1H)-one], under setting [2], the “human RIPK1 enzyme inhibitory effect at 10 μM (% inhibition)” value is recorded as 84%.

Turning to `CN1C(=O)[C@@H](N2CCc3c(nn(Cc4ccccc4)c3C(=O)O)C2=O)COc2ccccc21` [Example 53, 2-benzyl-6-((3S)-5-methyl-4-oxo-2,3,4,5-tetrahydro-1,5-benzoxazepin-3-yl)-7-oxo-4,5,6,7-tetrahydro-2H-pyrazolo[3,4-c]pyridine-3-carboxylic acid], under setting [1], the inhibition at 10 µM came to 67%.

With `O=C1Nc2cc(Cl)ccc2OC[C@@H]1N1CCc2c(nn(Cc3ccccc3)c2Cl)C1=O` [Example 144, (3S)-3-(2-benzyl-3-chloro-7-oxo-2,4,5,7-tetrahydro-6H-pyrazolo[3,4-c]pyridin-6-yl)-7-chloro-2,3-dihydro-1,5-benzoxazepin-4(5H)-one], the inhibition at 10 µM under setting [1] turned out to be 100%.

For `CN1C(=O)[C@@H](N2CCc3cn(Cc4ccc(S(C)(=O)=O)cc4)nc3C2=O)COc2ccccc21` [Example 164, (3S)-5-methyl-3-(2-(4-(methylsulfonyl)benzyl)-7-oxo-2,4,5,7-tetrahydro-6H-pyrazolo[3,4-c]pyridin-6-yl)-2,3-dihydro-1,5-benzoxazepin-4(5H)-one], the inhibition at 10 µM under setting [1] was found to be 98%.

On to `CN1C(=O)[C@@H](N2CCc3c(nn(Cc4ccccc4)c3Cl)C2=O)COc2ccccc21` [Example 76, (3S)-3-(2-benzyl-3-chloro-7-oxo-2,4,5,7-tetrahydro-6H-pyrazolo[3,4-c]pyridin-6-yl)-5-methyl-2,3-dihydro-1,5-benzoxazepin-4(5H)-one], for which the inhibition at 10 µM under setting [1] was 97%.

As for `CN1C(=O)[C@@H](N2CCc3cn(Cc4cccc(F)c4)nc3C2=O)CSc2ccccc21` [Example 156, (3R)-3-(2-(3-fluorobenzyl)-7-oxo-2,4,5,7-tetrahydro-6H-pyrazolo[3,4-c]pyridin-6-yl)-5-methyl-2,3-dihydro-1,5-benzothiazepin-4(5H)-one], the inhibition at 10 µM under setting [1] worked out at 97%.

For the compound `CN1C(=O)[C@@H](N2CCc3c(nn(Cc4ccccc4)c3C(N)=O)C2=O)COc2ccccc21` [Example 50, 2-benzyl-6-((3S)-5-methyl-4-oxo-2,3,4,5-tetrahydro-1,5-benzoxazepin-3-yl)-7-oxo-4,5,6,7-tetrahydro-2H-pyrazolo[3,4-c]pyridine-3-carboxamide], the inhibition at 10 µM (read-out: human RIPK1 enzyme inhibitory effect at 10 μM (% inhibition)) was 99%.

(Values after patent US10787462B2, “Heterocyclic compound” (TAKEDA PHARMACEUTICAL COMPANY LIMITED, priority 2015, dated 2020).)
